Data as given in patent US12421257B2, “Compositions and methods for inhibiting group II intron RNA” (YALE UNIVERSITY, priority 2018, dated 2025).
In brackets after ≈: the same amount, converted by molar mass. Entries after “also recorded” stand apart in the source; their conditions may differ. Where two headings read alike, the source gives them in different places.

What was measured:
[1] = test system: ai5γ group II intron (D135 ribozyme); test: Fluorescent D135 ribozyme cleavage assay (IC50); format: biochemical, Saccharomyces cerevisiae
Method in brief: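 D135 ribozyme (20 nM) with double-labeled substrate 17/2 DL (20 nM) in 50 mM MOPS pH 7.0, 100 mM MgCl2, 0.5 M KCl; 19 inhibitor concentrations, 5 nM–1 mM, 10 min at 37 °C, EDTA quench, fluorescence read. Triplicates fit to 4-parameter logistic for IC50; mean±s.e.m.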

HEK-293T cells = test: Cytotoxicity in HEK-293T cells (Cell Titer Glo); format: cell-based, human; conditions: Homo sapiens, cytotoxicity, 24 hours with compound, read-out: IC50 HEK-293
C. parapsilosis = test: MIC determination against C. parapsilosis; format: cell-based, Candida parapsilosis; conditions: Lodderomyces parapsilosis; RPMI-1640, 35° C. or 37° C., turbidity after 24 and 48 hours
Method in brief: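 Broth microdilution in RPMI-1640 with C. parapsilosis at 0.5×10^3 to 2.5×10^3 CFU/mL; test compounds 0.25-128 μg/ml final, 1% DMSO. Plates incubated at 35° C or 37° C, turbidity read visually at 24 and 48 h. MIC = lowest concentration without visible growth; triplicates.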

[2] = test system: C. parapsilosis COX1 group IIB intron; test: Group II intron splicing in C. parapsilosis by qRT-PCR; format: cell-based, Candida parapsilosis; conditions: 32 μg/mL
ai5γ group II intron = test: Radioanalytic self-splicing assay of SE RNA (Ki); format: biochemical, Saccharomyces cerevisiae; conditions: 8 mM MgCl2, 100 mM KCl, pH 7.5, 30° C.
Procedure: Internally labeled SE RNA (2 nM) was incubated with various concentrations of inhibitor compound under near-physiological conditions (in 50 mM MOPS, pH 7.5, 8 mM MgCl2, 100 mM KCl) at 30° C. Aliquots at different time points were quenched and analyzed on 5% denaturing polyacrylamide gel as previously described (Daniels et al., 1996, Journal of molecular biology, 256:31-49). Data were fit to a single-exponential equation to determine the first order rate constants (kobs). The latter were then plotted against the concentration of the inhibitor and fit to the equation for non-competitive inhibition to determine Ki values: kobs=kmax/(1+[I]/Ki), where kobs and kmax are the first order rate constants measured in the presence and in the absence of the inhibitor, respectively, [I] is the concentration of the inhibitor and Ki is the inhibition constant. Experiments were performed four times for API-014, three times for APY-090, Intronistat A, and Intronistat B and twice for the remaining compounds to ensure reproducibility. Data represent average±s.e.m.

S. cerevisiae = test: Yeast respiration assay in S. cerevisiae (MIC in YPD / YPGE); format: cell-based, Saccharomyces cerevisiae; conditions: Saccharomyces cerevisiae, 30° C.
Procedure: Yeast respiration assays were conducted either in liquid YPD media (BD Bacto Yeast Extract, BD Bacto Peptone, 2% glucose) or in YPGE media (BD Bacto Yeast Extract, BD Bacto Peptone, 3% glycerol, 3% ethanol), essentially as described for the antifungal MIC assays (see below). To initiate these experiments, 100 μl of a fresh stock solution was prepared for each compound (3.2 mg/ml for Amphotericin B and 12.8 mg/ml for each test compounds) in DMSO. This concentrated stock solution was placed in the first well of 12-well row on a 96-well plate. The subsequent nine wells in this row contained 50 μl of DMSO for serial dilution. From the first well, 50 μl of the compound stock was withdrawn, transferred to the second well and mixed. This process was repeated from the second and subsequent wells, resulting in a 1:2 serial dilution of the stock into DMSO. Wells 11 and 12 contained DMSO only, to be used as no compound control and sterility control, with no inoculum added, respectively. After preparing this plate, 2.5 μl from each of the 12 wells was transferred to the wells of a separate 96-well plate, each of which contained 122.5 μl of YPD or YPGE medium, resulting in a set of serial dilutions of compound into growth media in a volume of 125 μl. Then 50 μl from each of these dilutions were transferred onto a third 96-well plate (the assay plate) and mixed with an equal volume (50 μl) of freshly prepared yeast inoculum in YPD or YPGE medium set to provide 0.5×10^3 to 2.5×10^3 colony forming units per 1 mL (wells 1-11), or YPD/YPGE alone (sterility control, well 12). The final compound concentration range of the assay was 0.25-128 μg/ml for test compounds and 0.0625-32 μg/ml for Amphotericin B. The final concentration of DMSO was 1%. Plates were incubated at 30° C. and visually analyzed for turbidity after 24 and 48 hours of incubation. The lowest compound concentration at which no growth was apparent is reported as the MIC (Table 1). All experiments were performed in triplicate.

Row | SMILES | IC50 ([1]; D135 ribozyme cleavage of substrate 17/2 DL, 100 mM MgCl2, 500 mM KCl, 37° C., 10 minutes) [µM] | In vitro inhibitory activity, SAR statement (in words) ([1]; relative to parent scaffold) | IC50 (HEK-293T cells) [mg/L] | MIC (C. parapsilosis) [mg/L] | Splicing of C. parapsilosis COX1 in vivo (in words) [2] | Ki (ai5γ group II intron) [µM] | MIC (S. cerevisiae; YPD medium, read-out: MIC in YPD (glucose)) [mg/L] | MIC (S. cerevisiae; YPGE medium, read-out: MIC in YPGE (glycerol)) [mg/L]
1 | COc1ccc(/C=C2\Oc3cc(O)cc(O)c3C2=O)cc1OC [APY-001, (Z)-2-(3,4-Dimethoxybenzylidene)-4,6-dihydroxybenzofuran-3(2H)-one] | > 100 | nearly complete loss of activity | > 128 | > 128 | this effect was not observed; also recorded: inactive | > 1000 |  | 
2 | O=C1/C(=C/c2cc(O)c(O)c(O)c2)Oc2cccc(O)c21 [APY-019, (Z)-4-Hydroxy-2-(3,4,5-trihydroxybenzylidene)benzofuran-3(2H)-one] |  |  | > 32 | 16 (≈ 55.9 µM) |  |  | > 128 | 64 (≈ 224 µM)
